Common to all, as to assay type: functional
Experiment [1] deals with T1, Cdk-related protein kinase 6 (Plasmodium falciparum, UniProt O77239).
T1 sequence (O77239 whole entry): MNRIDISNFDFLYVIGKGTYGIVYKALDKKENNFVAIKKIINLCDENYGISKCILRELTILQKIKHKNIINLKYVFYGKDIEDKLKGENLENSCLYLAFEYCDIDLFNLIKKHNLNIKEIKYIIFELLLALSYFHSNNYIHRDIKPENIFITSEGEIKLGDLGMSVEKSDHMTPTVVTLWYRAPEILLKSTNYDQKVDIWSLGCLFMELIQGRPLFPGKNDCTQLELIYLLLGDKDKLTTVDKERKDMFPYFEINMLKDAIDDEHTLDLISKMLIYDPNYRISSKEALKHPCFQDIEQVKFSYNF
Put plainly: Final concentrations were 1.5 uM ATP, 5 mM MnCl2, and 15 ug/ml PK6 in a buffer of 100 mM Tris-HCl (pH 7.5). 50 ug/mL MBP was provided as the substrate; 10 uM staurosporine was used as a control inhibitor. Incubation time was 3 hours and 40 minutes.The catalytic activity of each kinase was considered proportional to ATP consumed, as determined from measurements of residual [ATP] with the luciferase-based reagent Kinase-Glo (Promega) following incubation. Luminescence (proportional to residual [ATP]) was measured on the plate readers FLx800 (BioTek Instruments, Winooski, VT, USA) and MicroBeta2.

The target in experiment [2] is T2, Calcium-dependent protein kinase 4 (Plasmodium falciparum (isolate 3D7), UniProt Q8IBS5).
T2 sequence (Q8IBS5 whole entry): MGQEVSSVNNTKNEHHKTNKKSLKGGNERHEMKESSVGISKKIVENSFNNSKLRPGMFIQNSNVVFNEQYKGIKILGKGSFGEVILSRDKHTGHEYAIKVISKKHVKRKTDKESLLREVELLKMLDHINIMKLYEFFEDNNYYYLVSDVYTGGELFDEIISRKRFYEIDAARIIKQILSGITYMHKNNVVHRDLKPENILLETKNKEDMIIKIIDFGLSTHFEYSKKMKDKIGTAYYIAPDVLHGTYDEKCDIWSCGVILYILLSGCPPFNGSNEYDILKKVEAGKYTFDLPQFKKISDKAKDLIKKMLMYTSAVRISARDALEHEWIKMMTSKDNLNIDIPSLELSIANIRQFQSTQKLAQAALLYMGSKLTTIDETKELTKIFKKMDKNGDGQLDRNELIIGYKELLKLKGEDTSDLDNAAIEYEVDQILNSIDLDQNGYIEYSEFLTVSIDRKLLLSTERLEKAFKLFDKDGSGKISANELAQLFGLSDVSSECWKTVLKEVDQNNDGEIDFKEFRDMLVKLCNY
Kind of experiment: MMV: CDPK4 Protein kinase inhibition assay using recombinant PfCDPK4, syntide2 peptide substrate, ATP and KinaseGlo to measure % inhibition at 1 uM MMV box compound.

Experiment [3] addresses T3, Putative uncharacterized protein pk7 (Plasmodium falciparum, UniProt O96214).
T3 sequence (O96214 whole entry): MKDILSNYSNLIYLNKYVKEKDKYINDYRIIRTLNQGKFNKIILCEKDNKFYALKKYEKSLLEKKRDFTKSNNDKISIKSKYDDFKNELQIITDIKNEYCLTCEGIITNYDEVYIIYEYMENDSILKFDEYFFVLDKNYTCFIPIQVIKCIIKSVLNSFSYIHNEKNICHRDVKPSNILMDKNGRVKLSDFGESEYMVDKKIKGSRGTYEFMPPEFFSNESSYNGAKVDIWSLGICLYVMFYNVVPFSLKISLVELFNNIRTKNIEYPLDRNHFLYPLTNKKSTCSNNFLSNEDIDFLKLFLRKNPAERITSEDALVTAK
Kind of experiment: Final concentrations were 1 uM ATP, 2 mM DTT, 20 mM MgCl2, 2 mM MnCl2, 0.01% BSA, and 6 ug/ml PK7, in a buffer of 20 mM Tris-HCl (pH 7.5). The enzyme itself was the only substrate present (since autophosphorylation occurs); 100 uM 1NA-PP1 was used as a control inhibitor. Incubation time was 3 hours.

The next experiment concerns the target T4, Proline--tRNA ligase (Plasmodium falciparum (isolate 3D7), UniProt Q8I5R7).
T4 sequence (Q8I5R7 whole entry): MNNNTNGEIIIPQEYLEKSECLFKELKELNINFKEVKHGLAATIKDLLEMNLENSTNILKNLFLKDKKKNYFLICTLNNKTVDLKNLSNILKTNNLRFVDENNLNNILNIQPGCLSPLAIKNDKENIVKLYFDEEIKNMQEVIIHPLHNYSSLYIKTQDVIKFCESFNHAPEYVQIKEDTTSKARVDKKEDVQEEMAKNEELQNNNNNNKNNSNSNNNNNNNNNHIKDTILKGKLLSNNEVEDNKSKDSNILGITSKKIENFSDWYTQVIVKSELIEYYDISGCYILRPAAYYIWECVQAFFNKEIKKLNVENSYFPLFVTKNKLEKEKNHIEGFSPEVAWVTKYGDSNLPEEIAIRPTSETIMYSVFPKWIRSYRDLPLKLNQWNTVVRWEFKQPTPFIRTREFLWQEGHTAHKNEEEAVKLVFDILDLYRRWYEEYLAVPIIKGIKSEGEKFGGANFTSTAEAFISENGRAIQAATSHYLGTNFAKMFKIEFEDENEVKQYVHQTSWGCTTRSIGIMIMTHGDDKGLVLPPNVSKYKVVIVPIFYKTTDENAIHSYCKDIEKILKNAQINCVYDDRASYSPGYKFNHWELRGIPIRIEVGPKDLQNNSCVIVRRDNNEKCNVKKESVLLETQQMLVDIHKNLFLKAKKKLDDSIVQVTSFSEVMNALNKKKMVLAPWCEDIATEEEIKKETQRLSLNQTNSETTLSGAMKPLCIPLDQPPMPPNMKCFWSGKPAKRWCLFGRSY
Kind of experiment: MMV: ProRS recombinant Plasmodium falciparum Prolyl-tRNA-synthetase, assay with yeast tRNA, ATP, and proline and 3 uM MMV malaria box compound, assay read out with kinase glo as % inhibition. For orientation: In Kinase-Glo more light means more ATP remaining.

A further experiment addresses Lysine--tRNA ligase (Plasmodium falciparum (isolate 3D7), UniProt Q8IDJ8). Put plainly: MMV: KRS recombinant Plasmodium falciparum Lysyl-tRNA-synthetase, assay with yeast tRNA, ATP, and lysine and 3 uM MMV malaria box compound, assay read out with kinase glo as % inhibition.
Experiment [4] deals with Calcium-dependent protein kinase 1 (Plasmodium falciparum, UniProt P62344). Put plainly: MMV: CDPK1 Protein kinase inhibition assay using recombinant PfCDPK1, syntide 2 peptide substrate, ATP and KinaseGlo to measure % inhibition at 1 uM MMV box compound.
The target in experiment [5] is T5, Mitogen-activated protein kinase (Plasmodium falciparum, UniProt Q25917).
T5 sequence (Q25917 whole entry): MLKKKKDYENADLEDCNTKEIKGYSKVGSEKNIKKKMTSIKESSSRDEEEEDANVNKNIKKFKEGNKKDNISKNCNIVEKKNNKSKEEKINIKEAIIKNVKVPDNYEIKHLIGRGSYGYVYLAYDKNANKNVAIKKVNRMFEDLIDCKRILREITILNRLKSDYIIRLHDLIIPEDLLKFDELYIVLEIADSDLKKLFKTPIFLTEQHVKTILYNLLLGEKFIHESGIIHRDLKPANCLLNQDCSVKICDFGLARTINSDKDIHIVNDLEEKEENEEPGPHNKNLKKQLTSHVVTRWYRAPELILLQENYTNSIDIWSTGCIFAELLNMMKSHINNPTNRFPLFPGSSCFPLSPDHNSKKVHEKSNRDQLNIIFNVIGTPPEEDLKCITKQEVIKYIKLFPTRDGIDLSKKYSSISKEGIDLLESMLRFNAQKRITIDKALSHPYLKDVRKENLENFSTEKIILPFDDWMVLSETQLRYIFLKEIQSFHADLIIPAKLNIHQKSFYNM
Kind of experiment: Final concentrations were 1 uM ATP, 0.5 mM DTT, 1 mM MgCl2, 0.5 mg/mL BSA, and 10 ug/ml MAP2 in a buffer of 50 mM HEPES (pH 7.0). 0.5 mg/mL histone III-S served as the substrate (13); 100 uM AMP-PNP, an ATP analog, was used as a control inhibitor. Incubation time was 4 hours.

As usually defined, the IC50 is the concentration needed to halve the response being measured.

Chain of Lysine--tRNA ligase (Q8IDJ8 whole entry): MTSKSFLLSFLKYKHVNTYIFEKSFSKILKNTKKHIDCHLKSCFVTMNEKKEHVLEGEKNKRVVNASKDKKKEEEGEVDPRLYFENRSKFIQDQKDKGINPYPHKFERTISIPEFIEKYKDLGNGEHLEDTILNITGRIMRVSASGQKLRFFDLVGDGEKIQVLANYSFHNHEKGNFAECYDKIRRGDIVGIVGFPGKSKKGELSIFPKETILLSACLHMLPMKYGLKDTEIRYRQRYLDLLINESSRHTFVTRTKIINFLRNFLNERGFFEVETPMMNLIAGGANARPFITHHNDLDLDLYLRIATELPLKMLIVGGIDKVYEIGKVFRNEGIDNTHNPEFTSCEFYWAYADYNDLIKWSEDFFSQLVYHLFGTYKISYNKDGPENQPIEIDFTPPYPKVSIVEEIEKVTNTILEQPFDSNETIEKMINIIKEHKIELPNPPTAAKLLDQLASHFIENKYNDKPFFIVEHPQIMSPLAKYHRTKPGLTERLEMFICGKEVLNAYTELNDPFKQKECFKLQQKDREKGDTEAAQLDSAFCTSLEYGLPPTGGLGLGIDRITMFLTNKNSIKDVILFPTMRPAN
Chain of Calcium-dependent protein kinase 1 (P62344 whole entry): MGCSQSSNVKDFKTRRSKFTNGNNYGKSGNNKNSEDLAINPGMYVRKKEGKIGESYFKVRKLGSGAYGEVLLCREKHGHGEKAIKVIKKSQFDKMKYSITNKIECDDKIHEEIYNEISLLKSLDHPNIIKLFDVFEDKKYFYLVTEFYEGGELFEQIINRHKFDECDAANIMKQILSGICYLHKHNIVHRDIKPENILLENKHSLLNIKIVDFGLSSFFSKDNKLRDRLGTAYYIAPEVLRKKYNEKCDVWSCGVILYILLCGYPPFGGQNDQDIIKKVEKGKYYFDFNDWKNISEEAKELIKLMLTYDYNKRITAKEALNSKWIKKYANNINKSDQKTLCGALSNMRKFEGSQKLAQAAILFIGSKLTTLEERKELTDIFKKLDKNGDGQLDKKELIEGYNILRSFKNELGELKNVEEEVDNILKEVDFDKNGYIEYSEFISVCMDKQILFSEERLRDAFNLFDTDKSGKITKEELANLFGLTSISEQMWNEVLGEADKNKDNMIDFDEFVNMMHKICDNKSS

As to `COc1ccc(/C=C2/SC(=Nc3ccccc3)NC2=O)cc1`, the IC50 in experiment [1] was > 1000 nM; in experiment [2], > 1000 nM; in experiment [3], > 1000 nM; on Proline--tRNA ligase it was > 2500 nM; at Lysine--tRNA ligase, > 2500 nM; in experiment [4], > 1000 nM. The concentration for half-maximal inhibition (IC50) in experiment [5] is > 1000 nM.
Consider `N#Cc1nc(Cc2cccc3ccccc23)oc1N1CCN(C(c2ccccc2)c2ccccc2)CC1`, for which the IC50 in experiment [1] was > 1000 nM; in experiment [2] it was > 1000 nM; in experiment [3], > 1000 nM; on Proline--tRNA ligase it was > 2500 nM; at Lysine--tRNA ligase, > 2500 nM; in experiment [4] it was > 1000 nM. Also, in experiment [5], the IC50 was > 1000 nM.
As for `CCCCCCc1cc2cc(-c3csc(C=Cc4ccccc4)n3)c(=O)oc2cc1O`, the half-inhibitory concentration (IC50) was > 1000 nM in experiment [1]; > 1000 nM in experiment [2]; > 1000 nM in experiment [3]; > 2500 nM at Proline--tRNA ligase; > 2500 nM on Lysine--tRNA ligase; > 1000 nM in experiment [4]. For the same compound, the half-maximal inhibitory concentration (IC50) in experiment [5] was > 1000 nM.
Turning to `COc1ccc(CNC(=O)c2cc3c(=O)n4ccccc4nc3n(CCc3ccccc3)c2=N)cc1`, the IC50 in experiment [1] was > 1000 nM; in experiment [2], > 1000 nM; in experiment [3], > 1000 nM; at Proline--tRNA ligase, > 2500 nM; at Lysine--tRNA ligase, > 2500 nM; in experiment [4] it was > 1000 nM. Moreover, the half-inhibitory concentration (IC50) in experiment [5] was > 1000 nM.
As for `Cn1c(=O)n(C)c2cc(CNCCNc3ccnc4cc(Cl)ccc34)ccc21`, the IC50 was > 1000 nM in experiment [1]; > 1000 nM in experiment [2]; > 1000 nM in experiment [3]; > 2500 nM on Proline--tRNA ligase; > 2500 nM at Lysine--tRNA ligase; > 1000 nM in experiment [4]. Further, the 50% inhibitory concentration (IC50) in experiment [5] is > 1000 nM.
As to `CCOc1ccc2nc(C)cc(Nc3ccc(N(C)C)cc3)c2c1`, the IC50 in experiment [1] was > 1000 nM; in experiment [2] it was > 1000 nM; in experiment [3] it was > 1000 nM; at Proline--tRNA ligase, > 2500 nM; on Lysine--tRNA ligase, > 2500 nM; in experiment [4], > 1000 nM. Moreover, the IC50 in experiment [5] is > 1000 nM.
`COc1ccc(C=C2SC(Nc3ccc(F)cc3)=NC2=O)c(OC)c1`: the IC50 in experiment [1] was > 1000 nM; in experiment [2], > 1000 nM; in experiment [3] it was > 1000 nM; on Proline--tRNA ligase, > 2500 nM; on Lysine--tRNA ligase, > 2500 nM; in experiment [4], > 1000 nM. The concentration for half-maximal inhibition (IC50) in experiment [5] was > 1000 nM.
As for `O=C(Nc1ccc(-c2nc3cc(NC(=O)c4ccc(Cl)cc4)ccc3[nH]2)cc1)c1ccc(Cl)cc1`, the IC50 was > 1000 nM in experiment [1]; > 1000 nM in experiment [2]; > 1000 nM in experiment [3]; > 2500 nM on Proline--tRNA ligase; > 2500 nM at Lysine--tRNA ligase; > 1000 nM in experiment [4]. In experiment [5], the 50% inhibitory concentration (IC50) is > 1000 nM.
Take `COc1ccccc1C(=O)ON=C(N)Cc1cccc2ccccc12`: the IC50 was > 1000 nM in experiment [1]; > 1000 nM in experiment [2]; > 1000 nM in experiment [3]; > 2500 nM at Proline--tRNA ligase; > 2500 nM at Lysine--tRNA ligase; > 1000 nM in experiment [4]. For the same compound, the 50% inhibitory concentration (IC50) in experiment [5] is > 1000 nM.
In the case of `CCOc1ccc2nc(C)cc(Nc3ccc(Br)cc3)c2c1`, the IC50 is > 1000 nM in experiment [1]; > 1000 nM in experiment [2]; > 1000 nM in experiment [3]; > 2500 nM at Proline--tRNA ligase; > 2500 nM at Lysine--tRNA ligase; > 1000 nM in experiment [4]. The concentration for half-maximal inhibition (IC50) in experiment [5] was > 1000 nM.
For the compound `COc1cc2c3cc1Oc1c(OC)c(OC)cc4c1C(Cc1ccc(O)c(c1)Oc1ccc(cc1)CC3N(C)CC2)N(C)CC4` (centres undefined), the IC50 was > 1000 nM in experiment [1]; > 1000 nM in experiment [2]; > 1000 nM in experiment [3]; > 2500 nM at Proline--tRNA ligase; > 2500 nM at Lysine--tRNA ligase; > 1000 nM in experiment [4]. For the same compound, the IC50 in experiment [5] is > 1000 nM.
`CCOC(=O)C1=CN(C)C=C(C(=O)OCC)C1c1cc(Br)c(OCC)c(OC)c1`: the half-inhibitory concentration (IC50) in experiment [1] is > 1000 nM; in experiment [2], > 1000 nM; in experiment [3], > 1000 nM; on Proline--tRNA ligase, > 2500 nM; on Lysine--tRNA ligase, > 2500 nM; in experiment [4] it was > 1000 nM. The half-inhibitory concentration (IC50) in experiment [5] was > 1000 nM.

Source of the values: ChEMBL document CHEMBL3301562, “MMV Box screening against Plasmodium falciparum protein kinases and aminoacyl tRNA synthetases”.
